According to EP0326331B1, “Substituted quinolines and cinnolines” (Dow AgroSciences LLC, priority 1988, dated 1989):
Read-outs that look alike come from different tables or passages of the source.

Tests used:
Format in all cases: in vivo
[1] = test system: Septoria tritici (leaf blotch); assay: Test 1 greenhouse foliar spray screen, leaf blotch on wheat; conditions: disease control rating, foliar spray on wheat, 400 ppm (+++ at 100 ppm)
[2] = test system: Pyricularia oryzae (rice blast); assay: whole plant or invertebrate; conditions: disease control rating, foliar spray on rice, 400 ppm (+++ at 100 ppm)
[3] = test system: Pseudoperonospora cubensis (downy mildew); assay: Test 1 greenhouse foliar spray screen, downy mildew on squash; conditions: for DOWN MDEW: disease control rating, foliar spray on squash, 400 ppm (+++ at 100 ppm)
[4] = test system: Twospotted spider mites (Tetranychus urticae Koch); assay: Mite/insect screen, SM; conditions: Tetranychus urticae, percent mortality, read-out: SM RESULTS %
Outline: (§1)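 Foliar spray to runoff (10 psi), 1 h drying; aqueous dilutions from acetone/alcohol emulsifier stock. Mortality (%) after standard exposure.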

[5] = test system: Botrytis cinerea (gray mold); assay: Test 1 greenhouse foliar spray screen, gray mold on grape berries; conditions: disease control rating, spray on grape berries, 400 ppm (+++ at 100 ppm)
[6] = test system: southern armyworm (Spodopetra eridania Cramer); assay: Mite/insect screen, SAW; conditions: Spodoptera eridania, percent mortality, read-out: SAW RESULTS %
Outline: as §1

[7] = test system: Cercospora beticola (leaf spot); assay: Test 1 greenhouse foliar spray screen, leaf spot on sugar beet; conditions: disease control rating, foliar spray on sugar beet, 400 ppm (+++ at 100 ppm)
[8] = test system: Erysiphe graminis tritici (powdery mildew); assay: Test 1 greenhouse foliar spray screen, powdery mildew on wheat; conditions: disease control rating, foliar spray on wheat, 400 ppm (+++ at 100 ppm)
[9] = test system: Venturia inaequalis (apple scab); assay: Test 1 greenhouse foliar spray screen, apple scab on apple seedling; conditions: disease control rating, foliar spray on apple seedling, 400 ppm (+++ at 100 ppm)
[10] = test system: melon aphids (Aphis gossypii Glover); assay: Mite/insect screen, MA; conditions: Aphis gossypii, percent mortality, read-out: MA RESULTS %
Outline: as §1

[11] = test system: Puccinia recondita tritici (leaf rust); assay: Test 1 greenhouse foliar spray screen, leaf rust on wheat; conditions: disease control rating, foliar spray on wheat, 400 ppm (+++ at 100 ppm)
corn rootworm = assay: Mite/insect screen, CRW; conditions: percent mortality, read-out: CRW RESULTS %
Outline: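 Following dissolution in equal parts acetone and alcohol with 23 g/L and 13 g/L emulsifier blends and dilution with water, test solutions were scored for percent mortality at the end of standard exposures.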

[12] = foliar, rate 200 ppm, foliar spray on squash
[13] = foliar, rate 400 ppm, foliar spray on squash

| Compound | LEAF BLOT [1] | RICE BLAST [2] | DOWN MDEW [3] | mortality at 200 ppm ([4]; SAW, SM & MA RATE 200 PPM) [%] | GRAY MOLD [5] | mortality at 200 ppm ([6]; SAW, SM & MA RATE 200 PPM) [%] | LEAF SPOT [7] | POWD MDEW [8] | APPL SCAB [9] | mortality at 200 ppm ([10]; SAW, SM & MA RATE 200 PPM) [%] | LEAF RUST [11] | mortality at 12 ppm (corn rootworm; CRW RATE 12.00 PPM) [%] | mortality at 200 ppm [4, 12] [%] | mortality at 200 ppm [6, 12] [%] | mortality at 200 ppm [10, 12] [%] | mortality at 12 ppm (corn rootworm; CRW rate 12.00 ppm) [%] | mortality at 400 ppm [4, 13] [%] | mortality at 400 ppm [6, 13] [%] | mortality at 400 ppm [10, 13] [%] | mortality at 24 ppm (corn rootworm; CRW rate 24.00 ppm) [%] | other results |
| --- | --- | --- | --- | --- | --- | --- | --- | --- | --- | --- | --- | --- | --- | --- | --- | --- | --- | --- | --- | --- | --- |
| Fc1cccc2c(NCCc3cccc4ccccc34)ccnc12 [Example 158, 8-fluoro-N-[2-(1-naphthyl)ethyl]-4-quinolinamine] | +++ (90-100% control at 100 ppm) | +++ (90-100% control at 100 ppm) | +++ (90-100% control at 100 ppm) | 0 | - (0-19% control at 400 ppm) | 0 | + (20-89% control at 400 ppm) | + (20-89% control at 400 ppm) | - (0-19% control at 400 ppm) | 0 | +++ (90-100% control at 100 ppm) | 0 | – | – | – | – | – | – | – | – | – |
| Cc1ccc(CCNc2ccnc3c(F)cccc23)s1 [Example 162, 8-fluoro-N-[2-(5-methyl-2-thienyl)ethyl]-4-quinolinamine] | - (0-19% control at 400 ppm) | + (20-89% control at 400 ppm) | +++ (90-100% control at 100 ppm) | 0 | - (0-19% control at 400 ppm) | 0 | - (0-19% control at 400 ppm) | + (20-89% control at 400 ppm) | - (0-19% control at 400 ppm) | 0 | ++ (90-100% control at 400 ppm) | 0 | – | – | – | – | – | – | – | – | – |
| Fc1cccc2c(NCCc3ccc(Cl)s3)ccnc12 [Example 163, N-[2-(5-chloro-2-thienyl)ethyl]-8-fluoro-4-quinolinamine] | - (0-19% control at 400 ppm) | + (20-89% control at 400 ppm) | ++ (90-100% control at 400 ppm) | 0 | - (0-19% control at 400 ppm) | 0 | +++ (90-100% control at 100 ppm) | ++ (90-100% control at 400 ppm) | - (0-19% control at 400 ppm) | 0 | +++ (90-100% control at 100 ppm) | 0 | – | – | – | – | – | – | – | – | – |
| Fc1cccc2c(NCCc3c[nH]cn3)ccnc12 [Example 164, 8-fluoro-N-[2-(1H-imidazol-4-yl)ethyl]-4-quinolinamine] | - (0-19% control at 400 ppm) | + (20-89% control at 400 ppm) | ++ (90-100% control at 400 ppm) | 0 | + (20-89% control at 400 ppm) | 0 | + (20-89% control at 400 ppm) | - (0-19% control at 400 ppm) | - (0-19% control at 400 ppm) | 0 | + (20-89% control at 400 ppm) | 0 | – | – | – | – | – | – | – | – | – |
| Clc1ccc2c(NCCC3=CCCCC3)ccnc2c1 [Example 165, 7-chloro-N-[2-(1-cyclohexenyl)ethyl]-4-quinolinamine] | - (0-19% control at 400 ppm) | ++ (90-100% control at 400 ppm) | +++ (90-100% control at 100 ppm) | – | - (0-19% control at 400 ppm) | – | +++ (90-100% control at 100 ppm) | + (20-89% control at 400 ppm) | + (20-89% control at 400 ppm) | – | ++ (90-100% control at 400 ppm) | – | 0 | 0 | 0 | 0 | – | – | – | – | activity against downy mildew ([3]; summary statement in the description): particularly excellent activity; mortality at 400 ppm ([4]; SAW, SM & MA RATE 400 PPM): 0%; mortality at 400 ppm ([6]; SAW, SM & MA RATE 400 PPM): 0%; mortality at 400 ppm ([10]; SAW, SM & MA RATE 400 PPM): 0%; mortality at 24 ppm (corn rootworm; CRW RATE 24.00 PPM): 0% |
| Clc1ccc2c(NCCc3ccc4ccccc4c3)ccnc2c1 [Example 166, 7-chloro-N-[2-(2-naphthyl)ethyl]-4-quinolinamine] | + (20-89% control at 400 ppm) | + (20-89% control at 400 ppm) | +++ (90-100% control at 100 ppm) | – | - (0-19% control at 400 ppm) | – | - (0-19% control at 400 ppm) | + (20-89% control at 400 ppm) | - (0-19% control at 400 ppm) | – | + (20-89% control at 400 ppm) | – | 0 | 0 | 0 | 0 | 0 | 0 | 0 | 0 | – |
| Fc1ccc2nccc(NCCC3=CCCCC3)c2c1 [Example 168, N-[2-(1-cyclohexenyl)ethyl]-6-fluoro-4-quinolinamine] | - (0-19% control at 400 ppm) | ++ (90-100% control at 400 ppm) | +++ (90-100% control at 100 ppm) | – | - (0-19% control at 400 ppm) | – | - (0-19% control at 400 ppm) | + (20-89% control at 400 ppm) | - (0-19% control at 400 ppm) | – | ++ (90-100% control at 400 ppm) | – | 0 | 0 | 0 | 0 | 0 | 0 | 0 | 0 | – |
| FC(F)(F)c1ccc2c(NCCc3ccc4ccccc4c3)ccnc2c1 [Example 169, N-[2-(2-naphthyl)ethyl]-7-(trifluoromethyl)-4-quinolinamine] | - (0-19% control at 400 ppm) | ++ (90-100% control at 400 ppm) | ++ (90-100% control at 400 ppm) | – | - (0-19% control at 400 ppm) | – | - (0-19% control at 400 ppm) | + (20-89% control at 400 ppm) | - (0-19% control at 400 ppm) | – | + (20-89% control at 400 ppm) | – | 0 | 0 | 0 | 0 | 0 | 0 | 0 | 0 | – |
| CC(Cc1cccs1)Nc1ccnc2c(F)cccc12 (centres unmarked) [Example 170, 8-fluoro-N-[1-methyl-2-(2-thienyl)ethyl]-4-quinolinamine] | - (0-19% control at 400 ppm) | + (20-89% control at 400 ppm) | + (20-89% control at 400 ppm) | – | - (0-19% control at 400 ppm) | – | - (0-19% control at 400 ppm) | + (20-89% control at 400 ppm) | - (0-19% control at 400 ppm) | – | ++ (90-100% control at 400 ppm) | – | 0 | 0 | 0 | 0 | – | – | – | – | – |
| CC(Cc1cccs1)Nc1ccnc2ccccc12 (centres unmarked) [Example 171, N-[1-methyl-2-(2-thienyl)ethyl]-4-quinolinamine] | + (20-89% control at 400 ppm) | + (20-89% control at 400 ppm) | + (20-89% control at 400 ppm) | – | - (0-19% control at 400 ppm) | – | + (20-89% control at 400 ppm) | - (0-19% control at 400 ppm) | - (0-19% control at 400 ppm) | – | + (20-89% control at 400 ppm) | – | 0 | 0 | 0 | 0 | – | – | – | – | – |
